Test results taken from US20240059688A1, “CONOLIDINE ANALOGUES AS SELECTIVE ACKR3 MODULATORS FOR THE TREATMENT OF CANCER” (Luxembourg Institute of Health (LIH), priority 2020, published 2024).

Key:
CCR3 = target: T1, CCR3 (Homo sapiens, UniProt P51677); assay: NanoBiT β-arrestin-1 recruitment, receptor selectivity panel, CCR3; format: cell-based; settings: higher concentrations (3 μM, 10 μM); FIG. 3 sections B and C
T1 construct: expressed in transfected cells; host or cells: U87
T1 sequence (P51677 1-355): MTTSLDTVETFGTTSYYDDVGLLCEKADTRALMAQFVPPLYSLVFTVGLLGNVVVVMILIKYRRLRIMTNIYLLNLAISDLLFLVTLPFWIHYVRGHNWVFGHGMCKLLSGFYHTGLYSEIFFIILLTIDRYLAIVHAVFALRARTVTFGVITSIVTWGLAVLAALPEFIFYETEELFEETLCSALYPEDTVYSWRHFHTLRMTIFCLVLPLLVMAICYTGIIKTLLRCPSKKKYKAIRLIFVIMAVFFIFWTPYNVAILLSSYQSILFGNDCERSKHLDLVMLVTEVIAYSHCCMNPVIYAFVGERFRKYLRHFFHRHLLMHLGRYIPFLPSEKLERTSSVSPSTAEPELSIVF
Experimental: To further assess the selectivity profile of the compounds of the invention towards ACKR3, the ability to activate the 21 classical and 4 atypical chemokines receptors and related receptors was tested using the NanoBiT assay based β-arrestin-1 recruitment described previously. The 4 classical opioid receptors described above were also included in the experimental setup. The compounds WW-1 (conolidine) and WW-12 were tested at three different concentrations, 1 μM, 3 μM and 10 μM.
This possible off-target effect was further characterized by comparing the ability of the two molecules to activate receptors ACKR4, CX3CR1 and CCR3 with reference ligands for the receptors, namely CCL19, CX3CL1 and CCL13.
Ligand-induced β-arrestin recruitment to chemokine and opioid receptors was monitored by NanoLuc complementation assay (NanoBiT, Promega). […] Ligand-induced, β-arrestin to GPCRs was evaluated with a Mithras LB940 luminometer (Berthold Technologies, running on MicroWin 2010 5.19 software (Mikrotek Laborsysteme)) for 20 minutes.
For single dose screening experiments on all chemokine receptors(FIG. 3), the results are represented as percentage of signal monitored with 100 nM of one known agonist chemokine listed in the IUPHAR repository of chemokine receptor ligands which was added as positive control.

ACKR3 [1] = target: T2, ACKR3 (Homo sapiens, UniProt P25106); assay: Binding competition assay with CXCL12-AF647 on U87-ACKR3 cells; parameters: expressed in transfected cells; host or cells: U87-ACKR3 (ACKR3-negative U87 as control); settings: 5 nM CXCL12-AF647, FIG. 1 section D
Excerpt: Dead cells were excluded using Zombie Green viability dye (BioLegend). […] Ligand binding was quantified by mean fluorescence intensity on a BD FACS Fortessa cytometer (BD Biosciences) using FACS Diva 8.01 (BD Biosciences).

ACKR3 [2] = target: T2, ACKR3; assay: Ligand-induced ACKR3 delivery to early endosomes (NanoBRET, U87 cells); format: cell-based; parameters: expressed in transfected cells; host or cells: U87-ACKR3 (ACKR3-negative U87 as control); settings: ACKR3-Nanoluciferase / FYVE-mNeonGreen, FIG. 6 section B
Experimental: Ligand-induced receptor-arrestin delivery to early endosomes was monitored by NanoBRET. In brief, 1.2×10^6 U87 cells were seeded in 10-cm dishes and co-transfected with plasmids encoding ACKR3, C-terminally tagged with Nanoluciferase and FYVE domain of endofin interacting with phosphatidylinositol 3-phosphate (PI3P) in early endosomes46,47, N-terminally tagged with mNeonGreen. 48h post-transfection, cells were distributed into black 96-well plates (1×10^5 cells per well) and treated with full-length or processed chemokines. After 2-hour incubation at 37° C., coelenterazine H (10 μM) was added and donor emission (460 nm) and acceptor emission (535 nm) were immediately measured on a GloMax plate reader (Promega).

T2 sequence (P25106 whole entry): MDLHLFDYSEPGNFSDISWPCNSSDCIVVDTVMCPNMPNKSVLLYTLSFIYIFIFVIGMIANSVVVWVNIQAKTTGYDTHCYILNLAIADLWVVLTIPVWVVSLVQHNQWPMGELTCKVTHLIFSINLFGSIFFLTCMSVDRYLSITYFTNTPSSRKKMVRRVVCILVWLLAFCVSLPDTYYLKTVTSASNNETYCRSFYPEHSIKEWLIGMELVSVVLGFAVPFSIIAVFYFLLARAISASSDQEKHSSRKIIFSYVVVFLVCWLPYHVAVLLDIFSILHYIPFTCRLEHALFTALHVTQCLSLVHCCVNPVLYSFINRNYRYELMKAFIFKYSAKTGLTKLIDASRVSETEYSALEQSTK

Structure (SMILES)	activation of CCR3 (β-arrestin-1 recruitment) in receptor panel (CCR3)	IC50 (ACKR3 [1]) [µM]	ACKR3 delivery to the endosomes (ACKR3 [2])
C/C=C1/CN(CCCCC)CC[C@H]1C(=O)c1cc2ccccc2[nH]1 [WW-12, [(3E,4R)-3-ethylidene-1-pentylpiperidin-4-yl](1H-indol-2-yl)methanone]	weak activation	2.7	delivery to the endosomes
C/C=C1/CN2CC[C@H]1C(=O)c1[nH]c3ccccc3c1C2 [WW-1, (4E,5R)-4-ethylidene-1,4,5,7-tetrahydro-2,5-ethanoazocino[4,3-b]indol-6(3H)-one]	weak activation	39.9	delivery to the endosomes
